According to ChEMBL document CHEMBL1130973, “Synthesis and biological evaluation of 3-arylisoquinolines as antitumor agents” (Bioorg Med Chem Lett, 1998):
Several values for one entry are separate records, joined by “and”; a condition that tells them apart may be missing. Equal values may be shown once.

Legend:
SK-MEL-2 [1] = test: Tested for inhibitory activity against SK-MEL-2 (human melanoma) tumor cell line; type: functional, cell-based
HCT-15 (Homo sapiens) [2] = test: Tested for in vitro cytotoxicity against HCT 15 (human colon) tumor cell line using sulforhodamine B (SRB) assay; not active (> 100 uM)
SK-MEL-2 [3] = test: Tested for in vitro cytotoxicity against SK-MEL-2 (human melanoma) tumor cell line using sulforhodamine B (SRB) assay; not active (> 100 uM); type: functional, cell-based
HCT-15 [4] = test: Tested for in vitro cytotoxicity against HCT 15 (human colon) tumor cell line using sulforhodamine B (SRB) assay; not active (> 100 uM); type: functional, cell-based
A549 [5] = test: Tested for in vitro cytotoxicity against A 549 (human lung) tumor cell line using sulforhodamine B (SRB) assay; not active (> 100 uM); type: functional, cell-based
SK-OV-3 [6] = test: Tested for in vitro cytotoxicity against SKOV-3 (human ovarian) tumor cell line using sulforhodamine B (SRB) assay; not active (> 100 uM); type: functional, cell-based
HCT-15 (Homo sapiens) [7] = test: In vitro cytotoxicity against HCT 15 (human colon) tumor cell line.
SK-MEL-2 [8] = test: In vitro cytotoxicity against SK-MEL-2 (human melanoma) tumor cell line.; type: functional, cell-based
SK-OV-3 [9] = test: In vitro cytotoxicity against SKOV-3 (human ovarian) tumor cell line.; type: functional, cell-based
XF498 (Homo sapiens) = test: In vitro cytotoxicity against XF498 (human CNS) tumor cell line.
A549 [10] = test: Tested for in vitro cytotoxicity against A 549 (human lung) tumor cell line using sulforhodamine B (SRB) assay; type: functional, cell-based
XF498 [11] = test: Tested for in vitro cytotoxicity against XF498 (human CNS) tumor cell line using sulforhodamine B (SRB) assay; type: functional, cell-based
SK-MEL-2 [12] = test: Tested for in vitro cytotoxicity against SK-MEL-2 (human melanoma) tumor cell line using sulforhodamine B (SRB) assay; type: functional, cell-based
SK-OV-3 [13] = test: Tested for in vitro cytotoxicity against SKOV-3 (human ovarian) tumor cell line using sulforhodamine B (SRB) assay; type: functional, cell-based
HCT-15 [14] = test: Tested for in vitro cytotoxicity against HCT 15 (human colon) tumor cell line using sulforhodamine B (SRB) assay; type: functional, cell-based
HCT-15 [15] = test: In vitro cytotoxicity against HCT 15 (human colon) tumor cell line.; type: functional, cell-based
XF498 [16] = test: In vitro cytotoxicity against XF498 (human CNS) tumor cell line.; type: functional, cell-based
Mus musculus = test: In vivo anti tumor activity towards P388 leukemia in BDFl mouse expressed as T/C; type: functional

Row | Structure (SMILES) | IC50 (A549 [5]) | IC50 (HCT-15 (Homo sapiens) [7]) | IC50 (SK-MEL-2 [8]; Homo sapiens, SK-MEL-2) | IC50 (SK-OV-3 [9]; Homo sapiens, SK-OV-3) | IC50 (XF498 (Homo sapiens)) | IC50 (A549 [10]; Homo sapiens, A549) | further results
1 | C=Cc1cc2c(cc1-c1cc3ccc(OC)c(OC)c3c(=O)n1C)OCO2 |  |  |  |  |  |  | IC50 (SK-MEL-2 [1]): 0.0002 µM
2 | CN(C)c1cccc2c(O)nc(-c3ccc(Br)cc3)cc12 | Not Active |  |  |  |  |  | IC50 (HCT-15 (Homo sapiens) [2]): Not Active; IC50 (SK-MEL-2 [3]): Not Active; IC50 (HCT-15 [4]): Not Active; IC50 (SK-OV-3 [6]): Not Active
3 | Cc1ccc2c(O)nc(-c3ccccc3C)cc2c1 |  | 1.99 µM | 2.63 µM | 4.27 µM | 30.9 µM | 5.89 µM | 
4 | COc1ccc(-c2cc3c(N(C)C)cccc3c(N3CCN(C)CC3)n2)cc1 |  | 10.7 µM | 3.98 µM | 13.2 µM | 6.17 µM | 1.82 µM | 
5 | CN(C)c1cccc2c(O)nc(-c3ccccc3)cc12 | Not Active |  |  |  |  |  | IC50 (HCT-15 (Homo sapiens) [2]): Not Active; IC50 (SK-MEL-2 [3]): Not Active; IC50 (HCT-15 [4]): Not Active; IC50 (SK-OV-3 [6]): Not Active
6 | CN1CCN(c2nc(-c3ccc(Cl)cc3)cc3c(N(C)C)cccc23)CC1 |  | 7.3 µM | 4.3 µM | 7.56 µM | 7.98 µM | 7.45 µM | 
7 | CN1CCN(c2nc(-c3ccccc3)cc3c(N(C)C)cccc23)CC1 |  | 9.55 µM | 7.08 µM | 11.2 µM | 19.9 µM | 10 µM | 
8 | Oc1nc(-c2ccccc2)cc2ccccc12 |  | 1.38 µM | 2.57 µM | 2.45 µM | 5.89 µM | 5.75 µM | 
9 | COc1ccc(-c2cc3ccccc3c(S)n2)cc1 | Not Active |  |  |  | 83.2 µM |  | IC50 (HCT-15 (Homo sapiens) [2]): Not Active; IC50 (SK-MEL-2 [3]): Not Active; IC50 (SK-OV-3 [6]): Not Active
10 | Cc1ccc(-c2cc3cc(C)ccc3c(O)n2)cc1 |  | 11.2 µM | 7.76 µM | 4.9 µM | 35.5 µM | 5.62 µM | 
11 | COc1ccc(-c2cc3c(N(C)C)cccc3c(O)n2)cc1 | Not Active |  |  |  |  |  | IC50 (HCT-15 (Homo sapiens) [2]): Not Active; IC50 (SK-MEL-2 [3]): Not Active; IC50 (HCT-15 [4]): Not Active; IC50 (SK-OV-3 [6]): Not Active
12 | Cc1ccc2c(O)nc(-c3ccc(Cl)cc3)cc2c1 |  |  |  |  |  |  | IC50 (XF498 [11]): 11.2 µM; IC50 (SK-MEL-2 [12]): 6.31 µM; IC50 (A549 [10]): 5.75 µM; IC50 (SK-OV-3 [13]): 6.03 µM; IC50 (HCT-15 [14]): 11.2 µM
13 | Cc1ccc(-c2cc3c(N(C)C)cccc3c(O)n2)cc1 | Not Active |  |  |  |  |  | IC50 (HCT-15 (Homo sapiens) [2]): Not Active; IC50 (SK-MEL-2 [3]): Not Active; IC50 (HCT-15 [4]): Not Active; IC50 (SK-OV-3 [6]): Not Active
14 | Cc1ccc2c(O)nc(-c3ccccc3)cc2c1 |  | 0.76 µM | 1.58 µM | 1.7 µM | 5.13 µM | 1.32 µM | 
15 | Cc1ccc(-c2cc3cc(C)ccc3c(N3CCN(C)CC3)n2)cc1 |  | 4.47 µM | 2.4 µM | 7.08 µM | 8.32 µM | 7.24 µM | 
16 | Cc1ccc2c(S)nc(-c3ccccc3)cc2c1 |  |  | 19.5 µM | 34.7 µM |  | 8.51 µM | IC50 (SK-MEL-2 [8]; sk-mel-2): 25.1 µM; IC50 (HCT-15 [15]): 19.1 µM and 41.9 µM; IC50 (SK-OV-3 [9]; sk-ov-3): 56.2 µM; IC50 (A549 [10]; a549): 11 µM; IC50 (XF498 [16]): 9.12 µM and 75.9 µM
17 | Oc1nc(-c2ccc3c(c2)OCO3)cc2ccccc12 | Not Active | 2.69 µM | 25.1 µM | 77.6 µM | 17.8 µM |  | 
18 | COc1ccc(-c2cc3cc(C)ccc3c(N3CCN(C)CC3)n2)cc1 |  | 7.41 µM | 3.71 µM | 7.94 µM | 9.33 µM | 7.41 µM | 
19 | CN1CCN(c2nc(-c3ccccc3)cc3ccccc23)CC1 |  | 18.6 µM | 11.8 µM | 22.4 µM | 37.1 µM | 25.1 µM | T/C (Mus musculus): 160%
20 | Cc1ccc(-c2cc3ccccc3c(O)n2)cc1 |  | 7.08 µM | 5.01 µM | 13.8 µM | 42.7 µM | 30.2 µM | 
21 | Cc1ccc2c(N3CCN(C)CC3)nc(-c3ccc(Cl)cc3)cc2c1 |  | 4.07 µM | 2.4 µM | 5.75 µM | 6.03 µM | 3.19 µM | 
22 | Oc1nc(-c2ccc(C(F)(F)F)cc2)cc2ccccc12 | Not Active |  |  | 87.3 µM |  |  | IC50 (HCT-15 (Homo sapiens) [2]): Not Active; IC50 (SK-MEL-2 [3]): Not Active; IC50 (HCT-15 [4]): Not Active
23 | Sc1nc(-c2ccccc2)cc2ccccc12 | Not Active |  |  |  |  |  | IC50 (HCT-15 (Homo sapiens) [2]): Not Active; IC50 (SK-MEL-2 [3]): Not Active; IC50 (HCT-15 [4]): Not Active; IC50 (SK-OV-3 [6]): Not Active
24 | Cc1ccc2c(N3CCN(C)CC3)nc(-c3ccccc3C)cc2c1 |  | 6.61 µM | 3.38 µM | 5.13 µM | 77.6 µM | 7.59 µM | 
25 | COc1ccc2c(c[n+](C)c3c4cc5c(cc4ccc23)OCO5)c1O [FAGARIDINE] |  | 1.12 µM | 2.75 µM | 1.35 µM | 1.12 µM | 1.02 µM | 
